Experimental data taken from PubChem BioAssay AID1419 (Emory University Molecular Libraries Screening Center, 2008).
Active and inactive are the calls of the source. How the calls were made is not given here.

Assay: EBV protein-peptide binding inhibitors, dose response, biochemical, fluorescence polarization (AID 1419)
Conditions: cell-free protein-peptide binding, 2 h; for fold change: measured here: P channel fold over control, at 54 µM

Row | SMILES | IC50 | fold change
1 | C=CCN1CC(c2nc3ccccc3n2CCOc2ccccc2)CC1=O (configuration not stated) | 34.2 µM (inactive) | 1.08
2 | CCCCN1C(=O)/C(=C/C=C2\N(C)c3ccccc3C2(C)C)SC1=S | 2.01 µM | 18.6
3 | COC(CNC(=O)c1ccc2c3c(onc13)-c1ccccc1C2=O)OC | < 0.42 µM | 137
4 | COc1cc(/C=C2/C(=O)c3cccc([N+](=O)[O-])c3C2=O)c(Br)cc1O | > 54 µM (inactive) | 0.647
5 | O=C(N=Nc1ccc(NOC(=O)c2ccccc2Br)cc1)c1ccccc1O | > 54 µM (inactive) | 0.957
6 | O=C1C2CC=C(Cl)CC2C(=O)N1CCCCCCN1C(=O)C2CC=C(Cl)CC2C1=O (configuration not stated) | 6.72 µM | 1.89
7 | Nc1c(O)ccc2c1C(=O)c1ccccc1C2=O | 4.09 µM | 2.59
8 | Cc1ccc(NC(=O)/C(C#N)=C(\N)C(Cl)(Cl)Cl)nc1 | 0.53 µM | 13
9 | O=c1[nH]c(Nc2ccccc2)cc2ccccc12 | 2.02 µM | 2.34
10 | O=C1Nc2ccccc2/C1=C/c1cnc(-c2ccccc2)[nH]1 | 4.23 µM | 14.6
11 | O=C(/C(=C(\[O-])c1ccccc1)[n+]1ccc2ccccc2c1)c1ccc(Cl)cc1 | 8.26 µM | 2.35
12 | Cc1nc(Cl)c2c(n1)NC1=C(O2)C(=O)CCC1 | 0.86 µM | 22.3
13 | CCN(CC)C(=O)CSc1nnc2nnc3cc(OC)ccc3n12 | < 0.42 µM | 7.06
14 | Cc1ccc(C(=O)NN2C(=O)/C(=C/c3cn(C)c4ccccc34)SC2=S)cc1 | 3.42 µM | 6.95
15 | COc1ncnc2c1NC1=C(S2)C(=NCCC(=O)O)CC(C)(C)C1 | 0.93 µM | 8.12
16 | COc1cccc(/C(O)=C/c2nc3ccc(C(=O)NCCc4ccc(Cl)cc4)cc3[nH]c2=O)c1 | < 0.42 µM | 12.1
17 | CCCSCC(=O)Nc1ncc2c(n1)-c1ccccc1CC2 | 5.28 µM | 2.7
18 | Cn1cccc1/C=C1/C(=O)NC(=O)N(Cc2ccc(F)cc2)C1=O | > 54 µM (inactive) | 1.04
19 | CCCn1c(O)c(N=Nc2ccc3ccccc3n2)c2ccccc21 | > 54 µM (inactive) | 1.5
20 | Nc1ccc2nc3c(=O)n(CCc4ccccc4)c(=O)[nH]c3nc2c1 | < 0.42 µM | 94.8
21 | CCCCCn1c(N)c(-c2nc3ccccc3o2)c2c([N+](=O)[O-])nn(C)c(=O)c21 | 48.1 µM (inactive) | 0.443

Row | SMILES | IC50 | fold change
22 | c1ccc(-c2[nH]c(-c3ccccc3)[n+](CC3CO3)c2-c2ccccc2)cc1 (configuration not stated) | > 54 µM (inactive) | 0.99
23 | N#C/C(=C/c1ccc(-c2ccc(S(N)(=O)=O)cc2)o1)c1nc2ccccc2s1 | > 54 µM (inactive) | 30.3
24 | COc1cc(/C=C2\SC(=O)N(c3cccc(Cl)c3)C2=O)cc([N+](=O)[O-])c1O | 3.51 µM | 1.04
25 | CCOC(=O)c1ccc2c(c1)C1C=CCC1C(C(=O)O)N2 (configuration not stated) | 4.11 µM | 1.2
26 | CC(O)CCc1nc2ccc(C(=O)O)cc2[nH]1 (configuration not stated) | > 54 µM (inactive) | 0.983
27 | COC(=O)CN1C(=O)N(c2ccccc2)C(N(O)C(=O)Nc2ccccc2)C1(C)C (configuration not stated) | > 54 µM (inactive) | 1
28 | Cn1c(O)c(C=Nc2ccc(N3CCOCC3)cc2)c(=O)n(C)c1=S | 18.9 µM | 6.36
29 | COc1ccc(-c2nnc(Nc3ccc(S(=O)(=O)Nc4nccs4)cc3)c3ccccc23)cc1 | > 54 µM (inactive) | 1.09
30 | CC1(c2ccc3noc(-c4ccc(F)cc4)c3c2)OCCO1 | 1.53 µM | 3.53
31 | Nc1cc2nc3ccccc3nc2cc1N | < 0.42 µM | 24.2
32 | COc1ccc(/C(O)=C/c2nc3ccccc3n(-c3ccccc3)c2=O)cc1 | > 54 µM (inactive) | 17
33 | N=C1/C(=C/c2ccc(-c3cccc(C(=O)O)c3)o2)C(=O)N=C2SC=C(c3ccccc3)N12 | 3.82 µM | 1.36
34 | Cc1cccc2cc3c(N)c(C(=O)N4CCCc5ccccc54)sc3nc12 | 9.62 µM | 4.66
35 | Cc1cc(=O)oc2c3c4c(cc12)OCCN4CCC3 | 3.95 µM | 3.5
36 | COc1ccc(NS(=O)(=O)c2ccc(Cl)s2)cn1 | 4.58 µM | 3.24
37 | Nc1ccc2nc3c(=O)n(C4CCCCC4)c(=O)[nH]c3nc2c1 | < 0.42 µM | 101
38 | Fc1ccc(/C=N/NC2=Nc3cccc4cccc2c34)cc1 | 7.4 µM | 3.32
39 | CCOC(=O)C1CCN(C(=O)Nc2ccc3nc(-c4ccco4)c(-c4ccco4)nc3c2)CC1 | 5.89 µM | 2.82
40 | CN(C)CCCN1C(=O)c2cccc3c([N+](=O)[O-])ccc(c23)C1=O | 18 µM | 2.14
41 | O=C(OCCN1C(=O)c2cccc3c(N4CCOCC4)ccc(c23)C1=O)c1cc(Cl)cc(Cl)c1 | 1.42 µM | 49.6
